# Assay results taken from patent US20260048093A1, “COMBINATION THERAPY OF MIXED HERBAL EXTRACT AND DOCETAXEL FOR PREVENTING OR TREATING CANCER” (JAEIN R&P INC., priority 2022, published 2026).
# Legend:
# [1] = system: A549 non-small cell lung cancer cell line; assay: WST colorimetric assay, viability in A549 cells; format: cell-based; conditions: 24, 48 and 72 hours
# Method: Specifically, a total of 10^5 cells per well were seeded in a 6-well plate before treatment. After 24 hours, the cells were treated with SH003 (100, 300, and 500 μg/mL), DTX (1, 10, 100, and 1000 nM), or a combination thereof for 24, 48, and 72 hours. […] After treatment, the cells were incubated with WST for 1 hour, and then the absorbance was measured at 450 nm using an ELISA reader (Molecular Devices, Palo Alto, CA, USA).
# H460 tumor xenograft = H460 tumor xenograft mouse model; format: in vivo, Balb/c nude mice; conditions: H460 xenograft mice
# Method: The effect of the combined administration of the mixed extract of the present invention and docetaxel was investigated in an animal model. All procedures of animal experimentation, including maintenance and euthanasia, were approved by Kyung Hee University Institutional Animal Care and Use Committee (KHU-IACUC-KHSASP-21-211). Five-week-old male Balb/c nude mice were purchased from Nara Biotech (Seoul, Republic of Korea) and acclimated to a 12-h light/dark cycle at 22-23° C. and 40-60% humidity. The mice were divided into four groups: control (n=3), SH003 administration (n=4), DTX administration (n=4), and combined administration (n=5). In order to establish a tumor xenograft mouse model, H460 cell suspension (1×10^7 cells) in 100 μL PBS was subcutaneously inoculated into the right flank of the mice. Thereafter, 200 μL of SH003 (557.569 mg/kg) was administered orally three times a week, and 50 μL DTX (15.277 mg/kg) was administered intravenously via the tail vein once a week for 3 weeks. Saline and DMSO were used as vehicles. The body weight was measured three times a week, and tumor volume was analyzed daily. On day 21, the mice were sacrificed using carbon dioxide and cervical dislocation was performed. Tumor tissues were isolated after euthanasia. […]
# A549 cells = assay: Annexin V/7-AAD apoptosis in A549 cells; format: cell-based; conditions: 24 hours
# Method: (§1) In order to investigate the effect of increasing apoptosis by combined administration of the mixed extract of the present invention and docetaxel, Annexin V/7-AAD double staining was used for analysis.
# (§2) Specifically, H460 and A549 cells were stained with Annexin V and then stained with 7-AAD in the dark for 15 minutes at room temperature, and then the stained cells were detected by FACSCalibur (BD Biosciences, San Jose, CA, USA), and the apoptotic cells were analyzed using CellQuest Pro version 5.2 (BD Biosciences, San Jose, CA, USA) software. The results are illustrated in FIG. 3.
# [2] = system: MDA-MB-231 (TNBC, highly metastatic); assay: MTT assay, viability and combination index in MDA-MB-231 cells; format: cell-based; conditions: 24 hours, SH003 100, 300, 500 μg/mL, DTX 1, 10, 100, 1000 nM
# Method: (§3) Thereafter, a 3-(4,5-Dimethylthiazol-2-yl)-2,5-diphenyltetrazolium bromide (MTT) reagent was treated in each cell, the cells were further incubated for 4 hours, and then a supernatant was removed and 100 μL of dimethyl sulfoxide (DMSO) was added. Finally, absorbance was measured at a wavelength of 590 nm and the absorbance value was compared with a control group which was not treated with any material.
# Fa indicates the inhibition rate.
# [3] = system: BT-20 (TNBC, triple-negative breast cancer, non-invasive); assay: MTT assay, viability and combination index in BT-20 cells; format: cell-based; conditions: 24 hours, SH003 100, 300, 500 μg/mL, DTX 1, 10, 100, 1000 nM
# Method: as §3
# Fa indicates the inhibition rate.
# H460 cells = assay: Annexin V/7-AAD apoptosis in H460 cells; format: cell-based; conditions: 24 hours
# Method: as §1, §2
# [4] = system: gastric cancer cell line AGS; assay: Cell survival rate and combination index in AGS cells; format: cell-based
# [5] = system: H460 non-small cell lung cancer cell line; assay: WST colorimetric assay, viability and combination index in H460 cells; format: cell-based; conditions: 24, 48 and 72 hours
# Method: Specifically, a total of 10^5 cells per well were seeded in a 6-well plate before treatment. […] After treatment, the cells were incubated with WST for 1 hour, and then the absorbance was measured at 450 nm using an ELISA reader (Molecular Devices, Palo Alto, CA, USA).
# Fa indicates the inhibition rate.
# BT-20 tumor xenograft = BT-20 tumor xenograft mouse model; format: in vivo, BALB/c nude mice; conditions: BT-20 xenograft mice
# Method: The effect of the combined administration of the mixed extract of the present invention and docetaxel was investigated in an animal model. All animal studies were approved by Kyung Hee University-Institutional Animal Care & Use Committee (KHU-IACUC). Five-week-old female BALB/c nude mice were purchased from Nara Biotech (Seoul, Republic of Korea). The mice were allowed free access to food and water and were housed in appropriate isolation cages at room temperature (22-25° C.) under a 12-h light/12-h dark cycle in the absence of pathogens. In order to establish a tumor xenograft mouse model, BT-20 cell suspension (1×10^7 cells) in 100 μL PBS was subcutaneously inoculated into the right flank of the mice. The mice were divided into four groups: control group (n=3), SH003 (n=4), DTX (n=4), and SH003+DTX (n=5). When the tumor volume reached 100 mm^3, the drug was injected. DTX was administered intravenously via the tail vein once a week at 15.277 mg/kg, while DMSO was administered to the control or SH003 single-administration group. SH003 was administered orally at 557.569 mg/kg three times a week, while saline was administered to the control or DTX single-administration group. The body weight was measured three times a week, and tumor volume was analyzed daily for 17 days.
# Subsequently, the mice were euthanized and the tumors were isolated. […]
smiles,measurement,setting,value
"CC(=O)O[C@@]12CO[C@@H]1C[C@H](O)[C@@]1(C)C(=O)[C@H](O)C3=C(C)[C@@H](OC(=O)[C@H](O)[C@@H](NC(=O)OC(C)(C)C)c4ccccc4)C[C@@](O)([C@@H](OC(=O)c4ccccc4)[C@H]21)C3(C)C [DTX, Docetaxel]",A549 cell growth,[1],inhibited A549 cell growth in a dose-dependent manner
same,body weight,H460 tumor xenograft,did not have an effect
same,apoptosis compared to the control group (in words),A549 cells,did not significantly affect
same,viability of MDA-MB-231 cells,[2],decreased the viability
same,viability of BT-20 cells,[3],decreased the viability
same,apoptosis compared to the control group (in words),H460 cells,did not significantly affect
same,AGS cell survival rate,[4],decreased in a concentration-dependent manner
same,H460 cell growth,[5],inhibited H460 cell growth in a dose-dependent manner
same,body weight,BT-20 tumor xenograft,did not have an effect
